From a melting point compilation (Tetko et al.; mined from patent text by program, amines drawn as free bases though some values may be those of a salt)

Row | melting point [°C] | SMILES
1 | 117 to 120 | CCc1nc2c(C)cc(C)nc2n1Cc1ccc(C(c2ccccc2)C(C)C(=O)NS(C)(=O)=O)cc1 (stereo not drawn)
2 | 53 to 68 | CC1(C)Oc2ccc(CC3SC(=O)NC3=O)cc2CC1c1ccccc1 (stereo not drawn)
3 | 86 to 89 | COC(=O)C(OCc1csc(-c2ccc(F)cc2)n1)C(=O)c1ccccc1 (stereo not drawn)
4 | 178 to 179 | COC(=O)CN(c1cc2cc(OC)c(=O)oc2cc1OCc1ccccc1)S(N)(=O)=O
5 | 210 to 211 | CC(C(N)=O)c1ccc2c(c1)oc1ccc(Cl)cc12 (stereo not drawn)
6 | 36.8 to 36.9 | N=C(N)NC(=O)Cc1c(-c2ccccc2)cccc1-c1ccc2ccccc2c1
7 | 105 to 106 | CC(C)(C)OC(=O)n1ccc2cc(-c3ccccc3)ccc21
8 | 215 to 217 | O=C(O)c1cnc(-c2ccccc2)c2ccccc12
9 | 168 to 169 | CNC(=O)c1cccc(C(C(N)=O)c2c[nH]c3ccccc23)c1 (stereo not drawn)
10 | 78 to 81 | CCCSCC(=O)NNC(=O)N1Cc2ccccc2Oc2ccc(Cl)cc21
11 | 151 to 153 | CC1(C)Cc2cc(NC(N)=O)c3c(c2C(c2ccccc2)=N1)CC(C)(C)O3
12 | > 225 | N=C(NCc1ccn(C2=CC3=C(CC2)CCc2[nH]c(=O)c(=O)n(CC(=O)O)c23)c1)Nc1ccccc1
13 | 151 to 154 | CCC1c2cccn2-c2ccc(C(F)(F)F)cc2N1S(=O)(=O)c1ccc(OC)c(C)c1 (stereo not drawn)
14 | 143 to 144 | COC(=O)c1sc(-c2ccccc2)c(O)c1O
15 | 177 to 179 | O=C1Nc2ccccc2C1=Cc1ccccc1
16 | 232 to 236 | CCN(Cc1cc(Br)ccc1OCc1ccccc1)c1ncc(C(=O)NCc2nnn[nH]2)s1

Row | melting point [°C] | SMILES
17 | 181 to 183 | O=C1c2ccccc2C(=O)N1CC(Cc1ccc([N+](=O)[O-])cc1)=NO
18 | 180 to 181 | O=C(Nc1c[nH]nc1C(=O)NCCSc1ccccc1)c1ccccn1
19 | 168 | Cc1cccc(NC(=O)NCC(=O)N(CC(=O)NCC2CC2)c2ccccc2)c1
20 | 152 | Cc1ccc2c(c1)c(N1CCNCC1)c(C#N)c(=O)n2Cc1ccccc1
21 | 170 to 172 | Cc1ccccc1Sc1cncc2sc(C(N)=O)cc12
22 | 133 to 134 | O=S(=O)(F)c1ccc(N=Nc2ccc(O)c(Cl)c2)cc1
23 | 100 to 103 | Cn1cccc1-c1oncc1C(=O)Nc1ccccc1
24 | 271 to 272 | CCC(=O)NCc1ccc(NC(=O)/C=C/c2cnn(C)c2-c2ccc(F)cc2)cc1
25 | 88 to 89 | C=CCc1cc2c(cc1OCC=Cc1ccccc1)CCC(=O)N2CC=Cc1ccccc1
26 | 199 | O=Cc1c2ccccc2cc2c1sc1ccccc12
27 | 208 | NS(=O)(=O)c1cccc(-c2cccc(-c3nc(-c4ccc(F)cc4)cc(C(F)(F)F)n3)c2)c1
28 | 227 to 229 | CC(=O)Nc1ccc(-c2nc3ccccc3s2)cc1
29 | 232 to 233 | Cc1ccc(Oc2ccc3c4c(cccc24)C2=NC(=O)C(C#N)=C23)cc1
30 | > 265 | COC(=O)c1cccc(Nc2nccc(-c3cn[nH]c3-c3ccc(F)cc3)n2)c1
31 | > 250 | Cc1cc(-c2ccc(C(F)(F)F)cc2)cc(-c2cccc(-c3csc(N)n3)c2)n1
32 | 110 to 111 | O=Cc1cccc(/C=C/c2ccc3cc(F)ccc3n2)c1

Continued, molecule first:

Row | SMILES | melting point [°C]
33 | COc1ccc2cccc(C(CNC(=O)CF)COS(C)(=O)=O)c2c1 (stereo not drawn) | 122 to 124
34 | O=C(O)c1cn(C2CC2)c2c(F)c(N3CCC(O)C3)c(F)cc2c1=O (stereo not drawn) | 276 to 278
35 | CCCc1ccc(CCc2ccc(-c3ccc(F)cc3)cc2)cc1 | 97
36 | C=CCOc1ccc(CC(=O)NCCCC)cc1 | 87 to 89
37 | O=C(O)Cc1ccc(OCCCCl)cc1 | 89 to 91
38 | CC[N+](CC)(CC)C1CC(=O)N1C(C(=O)OCc1ccc([N+](=O)[O-])cc1)=C([O-])CCSC (stereo not drawn) | 91
39 | CC(=O)N[C@H]1CC[C@H](CCN2CCN(c3nccc4ccoc34)CC2)CC1 | 157
40 | Fc1ccc(-c2cc(Cl)ncn2)c(F)c1 | 65 to 69
41 | CNc1nc(Nc2ccc(Cl)c(CNS(C)(=O)=O)c2)ncc1[N+](=O)[O-] | 250
42 | CON=C1C(C)(C)c2cc3c(cc2C1(C)C)N(SCc1nccc(OC)c1C)CN3 | 100
43 | CCOC(=O)c1c(C)cc2nc(C)n(-c3ccccc3Cl)c(=O)c2c1C | 131 to 132
44 | O=C(Nc1cc2ncc(CN3CCCC3)cc2cc1F)c1ccc(Br)cc1F | 149 to 151
45 | COC(=O)c1ccc(-c2ccc(-c3ccccc3)c(-c3ccc4c(c3)C(C)(C)CCC4(C)C)c2)c(O)c1 | 183 to 185
46 | ClCc1ccc2c(c1)Cc1cccnc1O2 | 172 to 174
47 | O=c1[nH]nc(CN2CC[C@H](OCc3cc(C(F)(F)F)cc(C(F)(F)F)c3)[C@H](c3ccccc3)C2)[nH]1 (relative stereo) | 89 to 91
48 | CC(C(=O)OC(C)(C)C)c1ccc(N2Cc3ccc(Br)cc3C2=O)cc1 (stereo not drawn) | 164 to 165
49 | COC(=O)Cc1ccc(OS(=O)(=O)C(F)(F)F)c([N+](=O)[O-])c1 | 44 to 45
50 | Cn1c(COc2ccc(CC3SC(=O)N(C(c4ccccc4)(c4ccccc4)c4ccccc4)C3=O)cc2)nc2ccc(Oc3ccc(C#N)cc3)cc21 (stereo not drawn) | 135 to 138
51 | O=C1C=CC(=O)c2nccnc21 | 172 to 173
52 | CC(C)(C)OC(=O)N1CCc2c(n(CCCc3ccccc3)c3ccc(Cl)c(Cl)c23)CC1 | 114 to 116
53 | COc1ccc(-c2cccc(C(=O)NN)c2)cc1OC1CCCC1 | 167 to 168
54 | OCCCc1cnoc1-c1ccc(F)c(Br)c1 | 57 to 58

Row | SMILES | melting point [°C]
55 | CNc1nc(NC)c2ncn(COC(CO)CO)c2n1 | 198
56 | CCCCn1cnnc1S | 67 to 69
57 | CC(C)(C)OC(=O)NCCNC(=O)c1n[nH]cc1-c1cccc(F)c1 | 175 to 176
58 | CCOC(=O)c1cn(CC)c2c(=O)c3cc(Cl)ccc3oc2c1=O | 257 to 259
59 | O=C(C=Cc1cc(O)c(O)c([N+](=O)[O-])c1)c1ccc([N+](=O)[O-])cc1 | 255 to 256
60 | CCOC(=O)Cc1ccnc(-c2nn(C(C)(C)C)c(N)c2C#N)c1 | 141 to 143
61 | NCCCn1cnc(-c2ccc(F)cc2)c1-c1ccncc1 | 81 to 82
62 | O=C1c2ccccc2-n2cnc(I)c2[C@@H]2CCCN12 | 222 to 223
63 | OCc1cnoc1-c1ccc(Cl)c(F)c1 | 87 to 88
64 | CC(C)(C)[C@H](NC(=O)[C@@H](CC(=O)O)n1ccc(-c2ccc(-c3ccc(C(N)=O)cc3)cc2)c1)C(=O)Nc1ccncc1 | 194 to 196
65 | O=C(Nc1cccc(S(=O)(=O)CCO)c1)c1cnn2c(C(F)F)cc(-c3ccc(C(F)(F)F)cc3)nc12 | 205
66 | CCOC(=O)CC(=O)c1cc(I)ccc1F | 54 to 56
67 | Cc1nc(C)c(Cl)c(NCc2nccc(CNCCO)c2Cl)n1 | 162 to 165
68 | COc1ccc2c(c1)C(=O)c1ccc(OC)cc1C2(Cc1ccnc(F)c1)Cc1ccnc(F)c1 | 151 to 152
69 | CCCCOc1ccc(/C=C/c2nc3c([nH]2)c(=O)n(CCC)c(=O)n3CCC)cc1 | 237 to 239
70 | COC(=O)c1cc2ccc(OC)cc2cc1/N=C/N(C)C | 122 to 124
71 | CCCCCn1c2ccccc2c2cc(C(=O)NN3CCCCC3)ccc21 | 158 to 159
72 | CCOP(=O)(OCC)C(CSC(OC(C)=O)OC(=O)N1CCN(c2cc3c(cc2F)c(=O)c(C(=O)O)cn3CC)CC1)P(=O)(OCC)OCC (stereo not drawn) | 89 to 90
73 | Cc1ccc(C(C)(C)C)c(Oc2ccc(O)cc2)c1 | 102
74 | CCOC(=O)Cc1cccc(N[C@@H](CCC(N)=O)C(=O)O)c1 | 176
75 | O=C(NC1(C(=O)O)CC1)OCCOC(=O)C1CCCCC1 | 124 to 125
76 | CCC1=NN=C(c2ccc(OC)c(OC)c2)c2cc(OC)c(OC)cc2C1C (stereo not drawn) | 157 to 158

Row | SMILES | melting point [°C]
77 | O=C(O)C1(C(=O)Nc2ccc(F)cc2F)CC1 | 160 to 163
78 | CC(C)(C)OC(=O)N1CCC(c2ccc(N3C[C@@H](CCO)OC3=O)cc2F)CC1 | 120 to 122
79 | CCNC(=O)[C@H]1N(C(=O)[C@@H](O)[C@H](Cc2ccccc2)NC(=O)c2cc(C)cc(O)c2C)CC(F)(F)C1(C)C | 208 to 214
80 | Nc1ccc(CN2CCNC(=O)C2=O)cc1 | 246 to 249
81 | CC(=O)N1CC(Oc2c(C)cccc2C)C1 | 40 to 42.5
82 | CCCCC(Oc1ccc(CCNS(=O)(=O)c2ccc(Cl)cc2)cc1)C(=O)O (stereo not drawn) | 138 to 139
83 | CC1(C)CN(C2CC3(C)C(CCC4C3CCC3(C)C(C(=O)CO)CCC43)CC2O)CCO1 (stereo not drawn) | 184 to 186
84 | CCC(CC)N1C(=O)CCc2c(C)nc(Nc3ccc(C(C)C)cc3Br)nc21 | 124 to 126
85 | COCCN(C(=O)c1cnc(N2CC(C)(C)NC2=O)nc1N)c1cccc(C(F)(F)F)c1 | 192 to 193
86 | CC(C)c1ccc(C(=O)NC(C)c2cccs2)cc1 (stereo not drawn) | 100
87 | COc1ccc(C(=O)Nc2c(Cl)cncc2Cl)c2[nH]c(C(F)(F)F)nc12 | 300 to 301
88 | C[C@H](NC(=O)Cc1cc(F)cc(F)c1)C(=O)N[C@@H]1C(=O)NCCS[C@@H]1c1ccccc1 | 128 to 133
89 | CCCC(N)CC(=O)O (stereo not drawn) | 203
90 | NC(=O)CNC(=O)COC[C@@H]1CCCN1C(=O)OCc1ccccc1 | 110 to 111
91 | Cc1cccc(N2C(=O)CC(Cl)C2=O)c1 (stereo not drawn) | 137 to 138
92 | CN1CC[C@@H]2CC(=O)c3cc4c(cc3[C@@H]2C1)OCO4 (relative stereo) | > 250
93 | CC(=O)Nc1ccc(SC2OC(CO)C(O)C(O)C2O)cc1 (stereo not drawn) | 160 to 163
94 | CCCn1c(=O)c2[nH]c(-c3cc(C)n(CC(=O)Nc4ccc(Cl)c(Cl)c4)n3)nc2n(CCC)c1=O | 298
95 | CCN(CC)C(=O)n1ccc(Sc2c(C)cccc2Cl)n1 | 57 to 58
96 | O=[N+]([O-])c1cc(Cl)c(Cl)c(Cl)c1Cl | 41 to 44
97 | CCCCOc1ccc(C(=O)Nc2ccc3cc(CN4CCCC4)cnc3c2C)c(F)c1 | 138
98 | COc1cc(C)c(C(=O)c2c(Cl)cnc(Cl)c2Cl)c(OC)c1OC | 60 to 61
